Measured values from patent US20260232767A1, “INTERLEUKIN-23 RECEPTOR ANTAGONIST PEPTIDES FOR USE IN THE TREATMENT OF PSORIASIS” (Janssen Pharmaceutica NV, priority 2023, published 2026).

Test system: subjects with moderate-to-severe plaque psoriasis
Experiment: Safety, adverse events, Example 2 through Week 56
Assay type: in vivo, human
Excerpt: The LTE safety analysis was based on randomized participants in Example who entered the present long-term extension study and received at least one dose of study intervention (including a partial dose) during the study period.

[1] = 100 mg BID, Week 16 through Week 56
[2] = 100 mg BID, LTE Safety analysis set

CC(=O)NCCCC[C@@H]1NC(=O)[C@H](Cc2c[nH]c3c(C)cccc23)NC(=O)[C@H]([C@@H](C)O)NC(=O)[C@H](CC(N)=O)NC(=O)[C@@H](NC(C)=O)C(C)(C)SSC(C)(C)[C@@H](C(=O)N[C@@H](Cc2ccc(OCCN)cc2)C(=O)N[C@@H](Cc2ccc3ccccc3c2)C(=O)NC2(C(=O)N[C@@H](CCC(=O)O)C(=O)N[C@@H](CC(N)=O)C(=O)N[C@@H](Cc3cccnc3)C(=O)N(C)CC(N)=O)CCOCC2)NC1=O [IL-23 receptor antagonist peptide, Ac-[Pen]*-N-T-[W(7-Me)]-[Lys(Ac)]-[Pen]*-Phe[4-(2-aminoethoxy)]-[2-Nal]-[THP]-E-N-[3-Pal]-Sarc-NH2 (*[Pen]-[Pen]* formdisulfidebond)]
Renal mass: number of subjects (50 mg QD, through Week 56): 0 | Respiratory, thoracic and mediastinal disorders: % of subjects (50 mg QD, through Week 56): (4.7%) | Respiratory, thoracic and mediastinal disorders: number of subjects (50 mg QD, through Week 56): 2 | Retinal vein occlusion: number of subjects (50 mg QD, through Week 56): 0 | Rhinorrhoea: number of subjects (50 mg QD, through Week 56): 0 | Seasonal allergy: % of subjects (50 mg QD, through Week 56): (2.3%) | Seasonal allergy: number of subjects (50 mg QD, through Week 56): 1 | Skin and subcutaneous tissue disorders: % of subjects (50 mg QD, through Week 56): (9.3%) | Skin and subcutaneous tissue disorders: number of subjects (50 mg QD, through Week 56): 4 | Skin laceration: number of subjects (50 mg QD, through Week 56): 0 | Skin papilloma: % of subjects (50 mg QD, through Week 56): (2.3%) | Skin papilloma: number of subjects (50 mg QD, through Week 56): 1 | Social circumstances: % of subjects (50 mg QD, through Week 56): (2.3%) | Social circumstances: number of subjects (50 mg QD, through Week 56): 1 | Steatohepatitis: number of subjects (50 mg QD, through Week 56): 0 | Subjects with AE leading to discontinuation: Abdominal discomfort (50 mg QD, through Week 56): 0 | Subjects with AE leading to discontinuation: Alanine aminotransferase increased (50 mg QD, through Week 56): 0 | Subjects with AE leading to discontinuation: Aspartate aminotransferase increased (50 mg QD, through Week 56): 0 | Subjects with AE leading to discontinuation: Asthenia (50 mg QD, through Week 56): 0 | Subjects with AE leading to discontinuation: Chills (50 mg QD, through Week 56): 0 | Subjects with AE leading to discontinuation: Ear and labyrinth disorders (50 mg QD, through Week 56): 0 | Subjects with AE leading to discontinuation: Gamma-glutamyltransferase increased (50 mg QD, through Week 56): 0 | Subjects with AE leading to discontinuation: General disorders and administration site conditions (50 mg QD, through Week 56): 0 | Subjects with AE leading to discontinuation: Headache (50 mg QD, through Week 56): 0 | Subjects with AE leading to discontinuation: Insomnia (50 mg QD, through Week 56): 0 | Subjects with AE leading to discontinuation: Investigations (50 mg QD, through Week 56): 0 | Subjects with AE leading to discontinuation: Nervous system disorders (50 mg QD, through Week 56): 0 | Subjects with AE leading to discontinuation: Proctalgia (50 mg QD, through Week 56): 0 | Subjects with AE leading to discontinuation: Psoriasis (50 mg QD, through Week 56): 0 | Subjects with AE leading to discontinuation: Psychiatric disorders (50 mg QD, through Week 56): 0 | Subjects with AE leading to discontinuation: Skin and subcutaneous tissue disorders (50 mg QD, through Week 56): 0 | Subjects with AE leading to discontinuation: Suicide attempt (50 mg QD, through Week 56): 0 | Subjects with AE leading to discontinuation: Transaminases increased (50 mg QD, through Week 56): 0 | Subjects with AE leading to discontinuation: Vertigo (50 mg QD, through Week 56): 0 | Subjects with AE leading to discontinuation: Vomiting (50 mg QD, through Week 56): 0 | Subjects with AE leading to discontinuation: Weight increased (50 mg QD, through Week 56): 0 | Subjects with COVID-19 associated AE: SARS-CoV-2 test positive (50 mg QD, through Week 56): 0 | Subjects with treatment-emergent serious AE: COVID-19 (50 mg QD, through Week 56): 0 | Subjects with treatment-emergent serious AE: Cerebrovascular accident (50 mg QD, through Week 56): 0 | Subjects with treatment-emergent serious AE: Diverticulitis (50 mg QD, through Week 56): 0 | Subjects with treatment-emergent serious AE: Injury, poisoning and procedural complications (50 mg QD, through Week 56): 0 | Subjects with treatment-emergent serious AE: Intervertebral disc protrusion (50 mg QD, through Week 56): 0 | Subjects with treatment-emergent serious AE: Ligament injury (50 mg QD, through Week 56): 0 | Subjects with treatment-emergent serious AE: Neoplasms benign, malignant and unspecified (incl cysts and polyps) (50 mg QD, through Week 56): 0 | Subjects with treatment-emergent serious AE: Nervous system disorders (50 mg QD, through Week 56): 0 | Subjects with treatment-emergent serious AE: Psychiatric disorders (50 mg QD, through Week 56): 0 | Subjects with treatment-emergent serious AE: Respiratory, thoracic and mediastinal disorders (50 mg QD, through Week 56): 0 | Subjects with treatment-emergent serious AE: Suicide attempt (50 mg QD, through Week 56): 0 | Subjects with treatment-emergent serious AE: Tonsillar hypertrophy (50 mg QD, through Week 56): 0 | Subjects with treatment-emergent serious AE: Uterine leiomyoma (50 mg QD, through Week 56): 0 | Subjects with treatment-emergent serious AE: Ventricular dysfunction (50 mg QD, through Week 56): 0 | Suicide attempt: number of subjects (50 mg QD, through Week 56): 0 | Sunburn: number of subjects (50 mg QD, through Week 56): 0 | Thrombocytopenia: number of subjects (50 mg QD, through Week 56): 0 | Thrombocytosis: number of subjects (50 mg QD, through Week 56): 0 | Tonsillar hypertrophy: number of subjects (50 mg QD, through Week 56): 0 | Tooth fracture: number of subjects (50 mg QD, through Week 56): 0 | Type 2 diabetes mellitus: number of subjects (50 mg QD, through Week 56): 0 | Urinary tract disorder: number of subjects (50 mg QD, through Week 56): 0 | Uterine leiomyoma: number of subjects (50 mg QD, through Week 56): 0 | Vascular disorders: % of subjects (50 mg QD, through Week 56): (2.3%) | Vascular disorders: number of subjects (50 mg QD, through Week 56): 1 | Ventricular dysfunction: number of subjects (50 mg QD, through Week 56): 0 | Vertigo: number of subjects (50 mg QD, through Week 56): 0 | Vitamin D deficiency: number of subjects (50 mg QD, through Week 56): 0 | Number of subjects with treatment-emergent AE: Cholelithiasis [1]: 0 | Number of subjects with treatment-emergent AE: Ear and labyrinth disorders [1]: 0 | Number of subjects with treatment-emergent AE: Endocrine disorders [1]: 0 | Number of subjects with treatment-emergent AE: Eye disorders [1]: 0 | Number of subjects with treatment-emergent AE: Eyelid skin dryness [1]: 0 | Number of subjects with treatment-emergent AE: Goiter [1]: 0 | Number of subjects with treatment-emergent AE: Hepatobiliary disorders [1]: 0 | Number of subjects with treatment-emergent AE: Hypertransaminasemia [1]: 0 | Number of subjects with treatment-emergent AE: Immune system disorders [1]: 1 | Number of subjects with treatment-emergent AE: Insomnia [1]: 0 | Number of subjects with treatment-emergent AE: Ocular cyst [1]: 0 | Number of subjects with treatment-emergent AE: Psychiatric disorders [1]: 0 | Number of subjects with treatment-emergent AE: Retinal vein occlusion [1]: 0 | Number of subjects with treatment-emergent AE: Seasonal allergy [1]: 1 | Number of subjects with treatment-emergent AE: Vertigo [1]: 0 | Subjects with treatment-emergent AE: Immune system disorders (%) [1]: (2.6%) | Subjects with treatment-emergent AE: Seasonal allergy (%) [1]: (2.6%) | Subjects who discontinued study agent because of 1 or more adverse events [2]: 0 | Subjects with 1 or more Serious Infections and infestations [2]: 0 | Subjects with adverse event: Arthralgia [2]: 0 | Subjects with adverse event: Bronchitis [2]: 0 | Subjects with adverse event: Headache [2]: 0 | Subjects with adverse event: Meniscus injury [2]: 0 | Subjects with adverse event: Sinusitis [2]: 0 | Subjects with adverse event: Vomiting [2]: 0 | Subjects with serious adverse event: Cerebrovascular accident [2]: 0 | Subjects with serious adverse event: Coronary artery disease [2]: 0 | Subjects with serious adverse event: Diverticulitis [2]: 0 | Subjects with serious adverse event: Foot deformity [2]: 0 | Subjects with serious adverse event: Intervertebral disc protrusion [2]: 0 | Subjects with serious adverse event: Ligament injury [2]: 0 | Subjects with serious adverse event: Non-cardiac chest pain [2]: 0 | Subjects with serious adverse event: Tonsillar hypertrophy [2]: 0 | Subjects with serious adverse event: Ventricular dysfunction [2]: 0 | Subjects with 1 or more treatment-emergent adverse events leading to discontinuation of study agent (100 mg BID, Week 16-56): 0 | Subjects with AE leading to discontinuation: Alanine aminotransferase increased (100 mg BID, Week 16-56): 0 | Subjects with AE leading to discontinuation: Aspartate aminotransferase increased (100 mg BID, Week 16-56): 0 | Subjects with AE leading to discontinuation: Asthenia (100 mg BID, Week 16-56): 0 | Subjects with AE leading to discontinuation: Chills (100 mg BID, Week 16-56): 0 | Subjects with AE leading to discontinuation: Ear and labyrinth disorders (100 mg BID, Week 16-56): 0 | Subjects with AE leading to discontinuation: Gamma-glutamyltransferase increased (100 mg BID, Week 16-56): 0 | Subjects with AE leading to discontinuation: Gastrointestinal disorders (100 mg BID, Week 16-56): 0 | Subjects with AE leading to discontinuation: General disorders and administration site conditions (100 mg BID, Week 16-56): 0 | Subjects with AE leading to discontinuation: Headache (100 mg BID, Week 16-56): 0 | Subjects with AE leading to discontinuation: Insomnia (100 mg BID, Week 16-56): 0 | Subjects with AE leading to discontinuation: Investigations (100 mg BID, Week 16-56): 0 | Subjects with AE leading to discontinuation: Nervous system disorders (100 mg BID, Week 16-56): 0 | Subjects with AE leading to discontinuation: Proctalgia (100 mg BID, Week 16-56): 0 | Subjects with AE leading to discontinuation: Psoriasis (100 mg BID, Week 16-56): 0 | Subjects with AE leading to discontinuation: Psychiatric disorders (100 mg BID, Week 16-56): 0 | Subjects with AE leading to discontinuation: Skin and subcutaneous tissue disorders (100 mg BID, Week 16-56): 0 | Subjects with AE leading to discontinuation: Vertigo (100 mg BID, Week 16-56): 0 | Subjects with AE leading to discontinuation: Vomiting (100 mg BID, Week 16-56): 0 | Subjects with treatment-emergent AE: Arthralgia (100 mg BID, Week 16-56): 0 | Subjects with treatment-emergent AE: Bronchitis (100 mg BID, Week 16-56): 0 | Subjects with treatment-emergent AE: Gastrointestinal disorders (100 mg BID, Week 16-56): 0
